{"source": "paper PMC12038006", "about": "“Structure and mechanism of a mycobacterial isoniazid efflux pump MsRv1273c/72c with a degenerate nucleotide-binding site” (Nature Communications, 2025)", "target": "T1, MsRv1273c/72c (Mycolicibacterium smegmatis, UniProt A0R271+A0R272)", "T1 construct": "gene MSMEG_5008", "T1 sequence (A0R272 entry or part of it)": "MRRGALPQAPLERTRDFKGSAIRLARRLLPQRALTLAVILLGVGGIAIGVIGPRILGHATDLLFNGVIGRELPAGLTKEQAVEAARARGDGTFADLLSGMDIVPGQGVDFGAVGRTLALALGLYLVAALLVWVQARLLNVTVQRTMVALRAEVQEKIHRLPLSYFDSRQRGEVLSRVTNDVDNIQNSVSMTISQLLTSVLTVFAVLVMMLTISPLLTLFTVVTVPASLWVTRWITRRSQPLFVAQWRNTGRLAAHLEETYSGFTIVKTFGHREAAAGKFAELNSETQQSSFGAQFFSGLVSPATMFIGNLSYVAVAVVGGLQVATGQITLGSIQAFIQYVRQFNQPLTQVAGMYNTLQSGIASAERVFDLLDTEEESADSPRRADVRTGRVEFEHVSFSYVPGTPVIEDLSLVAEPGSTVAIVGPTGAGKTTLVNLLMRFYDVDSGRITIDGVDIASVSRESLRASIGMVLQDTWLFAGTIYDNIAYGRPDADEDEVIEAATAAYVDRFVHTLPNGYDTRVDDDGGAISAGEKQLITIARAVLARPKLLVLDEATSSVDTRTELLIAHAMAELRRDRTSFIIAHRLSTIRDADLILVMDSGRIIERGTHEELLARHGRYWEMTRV", "T1 sequence (A0R271 entry or part of it)": "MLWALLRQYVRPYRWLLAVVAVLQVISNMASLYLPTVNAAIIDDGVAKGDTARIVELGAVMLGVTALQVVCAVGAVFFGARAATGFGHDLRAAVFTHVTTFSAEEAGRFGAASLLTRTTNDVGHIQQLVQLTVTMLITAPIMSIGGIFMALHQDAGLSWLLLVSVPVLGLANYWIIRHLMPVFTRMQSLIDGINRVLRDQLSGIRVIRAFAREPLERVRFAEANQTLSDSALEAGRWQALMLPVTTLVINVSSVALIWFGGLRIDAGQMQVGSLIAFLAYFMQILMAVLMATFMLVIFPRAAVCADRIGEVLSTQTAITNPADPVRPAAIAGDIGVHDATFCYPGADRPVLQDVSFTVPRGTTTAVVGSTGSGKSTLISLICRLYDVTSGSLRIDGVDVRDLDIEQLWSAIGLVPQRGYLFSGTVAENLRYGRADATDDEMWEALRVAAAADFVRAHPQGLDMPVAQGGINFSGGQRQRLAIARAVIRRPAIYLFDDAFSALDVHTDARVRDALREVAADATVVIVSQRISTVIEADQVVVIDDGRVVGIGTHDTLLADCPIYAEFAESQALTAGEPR", "format": "binding"}
{"molecule": "Nc1ncnc2c1ncn2[C@@H]1O[C@H](COP(=O)(O)OP(=O)(O)OP(=O)(O)O)[C@@H](O)[C@H]1O", "note": "[ATP]", "values": [{"measurement": "cryo-EM structure", "value": "the degenerate site is bound with an ATP, which has not been hydrolyzed"}]}
{"molecule": "Nc1ncnc2c1ncn2[C@@H]1O[C@H](COP(=O)(O)OP(=O)(O)O)[C@@H](O)[C@H]1O", "note": "[ADP]", "values": [{"measurement": "cryo-EM structure", "value": "In this structure, ADP binds at the consensus site"}]}
{"molecule": "Nc1ncnc2c1ncn2[C@@H]1O[C@H](COP(=O)(O)OP(=O)(O)NP(=O)(O)O)[C@@H](O)[C@H]1O", "note": "[AMPPNP]", "values": [{"measurement": "cryo-EM structure", "value": "Though both NBSs bind AMPPNP, the NBDs are partially dimerized at the degenerate site"}]}
